Results taken from patent US7625567B1, “Induction of immune responses to isoaspartyl-modified antigens” (Yale University, priority 2001, dated 2009).
Numbered stars: 1 amine (or outer) side, 2 acyl side, 3 side chain; on linkers, the order of the positions; unused ones are H or OH. Square brackets hold non-standard residues; d marks the D form. Ends that are not written are not given here. βAsp = O=C(O)[C@H](CC(=O)[*:2])N[*:1]

Tests used:
B16 melanoma cells = assay: Isoaspartyl content of living B16 melanoma cells after adenosine dialdehyde treatment (ISOQUANT assay); type: cell-based, murine; settings: 30 μM adenosine dialdehyde, 48 h
Protocol: Isoaspartyl residues were detected by the enzyme, protein isoaspartyl methyltransferase, according to the manufacturer's protocol (ISOQUANT™ Protein Deamidation Detection Kit, Promega Corp., Madison, Wis.). In brief, samples and control peptides are incubated 30 min. at 30 C in a reaction mixture containing protein isoaspartyl methyltransferase, [^3H}S-adenosyl-L-methionine, and cold S-adenyl-L-methionine. The reaction is stopped at pH 10 on ice and volatile [^3H]methanol is condensed in the reaction vessel. Fifty μl of sample is adsorbed to a sponge attached to the cap of a scintillation vial. The sample is incubated 60 min. at 40 C to volatize [^3H]methanol into the scintillation mixture and counted for counts/min. […]
Briefly, selected cells, such as B16-F0 melanoma cells, are grown to confluency. The cells are then exposed to trypsin and counted. […] The cells are next harvested using trypsin, washed, and counted. […] Protein concentration is determined in both the supernatant and the pellet. Isoaspartyl generation is determined by ISOQUANT assay described above.
In cell culture, B16 cells were incubated with 30 μM adenosine dialdehyde for 48 h as described above. […] Isoaspartyl content was determined as described above.

[1] = test system: CD8 T cells stimulated with isoaspartyl or aspartyl TRP-2 pulsed APCs; assay: CD8 T cell proliferation after immunization with TRP-2 peptide; type: in vivo, C57B1/6 mice; settings: 50 μg peptide s.c. in CFA, day 7 lymph node CD8 T cells
Protocol: FIG. 7 illustrates that immunization with isoaspartyl TRP-2 peptide elicits CD8 T cells that proliferate in response to stimulation with isoaspartyl or aspartyl TRP-2 peptide. For these studies, C57B1/6 mice are immunized subcutaneously with 50 μg of either isoaspartyl TRP-2 peptide or aspartyl TRP-2 peptide emulsified in complete Freund's adjuvant (CFA). After 7 days, lymph node cells are collected and CD8 T cells are purified by magnetic bead depletion of CD4+, B220+, CD11c+ cells. CD8 T cells (1×10^5) are incubated for 3 days in tissue culture (37° C., 5% CO2) with irradiated splenic antigen presenting cells (APCs; 5×10^5 cells) pulsed with isoaspartyl TRP-2 or aspartyl TRP-2 in the concentrations as indicated.

B16F10 melanoma cells = assay: Anti-tumor antibody response: serum binding to B16F10 cells by flow cytometry; type: in vivo, mice; settings: 50 μg peptide s.c., serum day 28, 1/100 dilution, anti-mouse IgG-FITC
Protocol: FIG. 8 illustrates that immunization with isoaspartyl TRP-2 elicits anti-tumor antibody responses. Mice were immunized subcutaneously with 50 μg of isoaspartyl or aspartyl TRP-2 peptide, as indicated. Mice were bled at day 28 post immunization. Serum (1/100 dilutions in phosphate buffered saline (PBS)) was incubated with B16F10 melanoma cells (5×10^5 cells) and analyzed by flow cytometry after the detection of bound antibody with anti-mouse IgG-FITC.

[2] = test system: TRP-2 specific CD8 T cells; assay: MHC class I (H-2 Kb) TRP-2 tetramer staining of CD8 T cells after immunization; type: in vivo, mice; settings: 50 μg s.c. in CFA, day 14 lymph node cells, 5 day culture with isoaspartyl TRP-2 10 μg/ml
Protocol: FIG. 9 illustrates that CD8 T cells specific for the TRP-2 peptide are elicited by immunization with isoaspartyl TRP-2 peptide. Mice were immunized subcutaneously with 50 μg of isoaspartyl TRP-2 emulsified in CFA. At day 14 after immunization, lymph node cells were removed and single cell suspensions (4×10^6 cells/ml) were incubated in culture with isoaspartyl TRP-2 peptide (10 μg/ml) for 5 days (37° C., 5% CO2). Living cells were purified by Ficoll-hypaque and incubated with anti-CD8-FITC antibody (Promega Inc.) and MHC class I (H-2 Kb) tetramers linked to PE, as indicated. Tetramer staining was performed with a control, non-specific peptide (SIINFEKL) (SEQ ID NO:4) and with aspartyl and isoaspartyl TRP-2 peptide tetramers, as indicated.

[3] = test system: EL-4 target cells pulsed with TRP-2; assay: Cytotoxicity of CD8 T cells from immunized mice against peptide-pulsed EL-4 target cells (Cytotox 96); type: in vivo; settings: 50 μg in CFA s.c.; effector to target ratios 5:1, 10:1, 20:1; EL-4 targets
Protocol: FIG. 10 illustrates that immunization with isoaspartyl TRP-2 peptide elicits CD8 T cells that kill tumor peptide bearing target cells. Mice were immunized with isoaspartyl or aspartyl TRP-2 (50 μg in CFA), by subcutaneous route. Lymph node cells were expanded in vitro for 5 days with isoaspartyl TRP-2 as described above. After 5 days, purified effector CD8 T cells were mixed with EL-4 target cells pulsed with isoaspartyl TRP-2, aspartyl TRP-2, or unpulsed EL-4 cells, as indicated. Averages of triplicate cultures are reported for effector to target ratios of 5:1, 10:1, and 20:1. Cytotoxicity was performed by commercial non-radioactive methods (Ctyotox 96, Promega, Inc.) according to the manufacturer's instructions. As indicated in the upper panel of FIG. 10, mice immunized with isoaspartyl TR-2 peptide kill up to 35% of TRP-2 pulsed target cells.

[4] = test system: TRP-2 peptide pulsed syngeneic spleen cells; assay: In vivo CTL assay: killing of tumor peptide pulsed target cells; set-up: species or system mice; settings: 50 μg in CFA s.c., day 21, 16 hours
Protocol: In this approach, groups of 6 mice were immunized with isoaspartyl or aspartyl TRP-2 (50 μg in CFA), by subcutaneous route. At day 21 mice were examined for their ability to kill tumor peptide pulsed target cells (in vivo CTL assays) modified by the protocol of Coles, et al. (J. Immunol. 168:834-838 (2002)). In brief, two populations of syngeneic target spleen cells are labeled with low or high concentrations of CFSE (0.5 μM or 5.0 μM CFSE, respectively). Spleen cells labeled with 5.0 μM CFSE are pulsed with isoaspartyl or aspartyl TRP-2 peptide (1 μg/ml) as the in vivo target cell population. Both high CFSE labeled/TRP-2 peptide pulsed and low CFSE labeled/unpulsed spleen cells (1×10^7 cells for each population) are transferred by intravenous route into immunized mice as described above. Mice were sacrificed at 16 hours and in vivo lysis of peptide pulsed targets is defined by flow cytometry technology as: Ratio=% CFSE low/% CFSE high % Specific Killing=[1−(ratio in control immunized/ratio in immunized)×100].

[5] = test system: B16F10 melanoma tumor masses; assay: CD8 T cell influx into B16F10 melanoma tumor tissue (immunohistochemistry); type: in vivo, mice; settings: 50 μg in CFA s.c.; challenge day 21 with 0.5×10^6 B16F10 cells; tumors day 14 after challenge
Protocol: FIG. 11 illustrates an influx of CD8 T cells into melanoma tumor tissues of mice immunized with isoaspartyl TRP-2 immunized mice. […] For these studies, mice were immunized with isoaspartyl or aspartyl TRP-2 (50 μg in CFA), by subcutaneous route. At day 21, mice were challenged with 0.5×10^6 B16F10 melanoma cells by subcutaneous route. At day 14 after tumor cell challenge, tumor masses were removed and stain for CD8 T cells by conventional immunohistochemistry.

B16F10 tumor cells = assay: Survival of immunized mice challenged with B16F10 tumor cells; type: in vivo; settings: 50 μg in CFA s.c.; challenge s.c. day 21 with 0.5×10^6 cells; groups of 10 mice
Protocol: For these studies, groups of 10 mice were immunized with isoaspartyl or aspartyl TRP-2 (50 μg in CFA), by subcutaneous route as described above. Mice were challenged subcutaneously at day 21 with 0.5×10^6 cells. Survival was assessed every 3 days.

[6] = test system: B and T cell compartments; settings: mice immunized with peptide (Mamula et al. 1999); cited from earlier work
[7] = target cells transferred: Asp TRP-2 pulsed
[8] = target cells transferred: Isoasp TRP-2 pulsed

Compound | isoaspartyl content compared to untreated B16 cells (B16 melanoma cells) | CD8 T cell response to stimulation with isoaspartyl or aspartyl TRP-2 peptide [1] | anti-tumor antibodies binding B16F10 cells (B16F10 melanoma cells) | TRP-2 specific CD8 T cells bound by aspartyl and isoaspartyl TRP-2 tetramers [2] | killing of TRP-2 pulsed target cells [3] | % Specific Killing [4, 7] | % Specific Killing [4, 8] | influx of CD8 T cells into tumor masses [5] | survival after B16F10 challenge (B16F10 tumor cells) | B and T cell response to immunization [6]
Nc1ncnc2c1ncn2C(C=O)OC(C=O)CO (centres unmarked) [adenosine dialdehyde] | enhanced from two to five fold |  |  |  |  |  |  |  |  | 
Aspartyl TRP-2: TRP-2 peptide (sequence 181-188) synthesized with an aspartic acid residue at 183 (SEQ ID NO:2) (VYDFFVWL; Human) |  | fails to elicit any detectable T cell responses | little or no anti-tumor antibodies are detected | failed to stimulate TRP-2 specific CD8 T cells | fail to elicit cytotoxic T cell responses | 5% | 22% | fail to show CD8 T cells in the tumor masses |  | 
Isoaspartyl TRP-2: TRP-2 peptide (sequence 181-188) synthesized with an isoaspartyl amino acid modification at residue 183 (SEQ ID NO:3) (VY[βAsp]FFVWL) |  | elicits cross reactive T cells that respond to stimulation with either isoaspartyl or aspartyl TRP-2 peptide | effectively bind B16F10 cells | profoundly stimulated the growth of CD8 T cells that were bound by aspartyl and isoaspartyl TRP-2 tetramers | up to 35% | 56% | 60% | significant influx of CD8 T cells | greater survival as compared to mice immunized with aspartyl TRP-2 or CFA control immunizations | 
murine cytochrome c peptide 90-104: murine cytochrome c peptide 90-104, normal aspartyl form (ERADLIAYLKKATNE; UniProt P62897 91-105, looked up, fragment) |  |  |  |  |  |  |  |  |  | no response by the B or T cell compartments
